Assay results: ChEMBL document CHEMBL3867437, “Oryzamides A-E, Cyclodepsipeptides from the Sponge-Derived Fungus Nigrospora oryzae PF18” (J Nat Prod, 2016)
≈ marks a conversion by molar mass, not a printed value.

How the values were obtained:
[1] = Cytotoxicity against human HeLa cells after 48 hrs by MTT assay; format: functional, cell-based
Staphylococcus aureus [2] = assay: Antibacterial activity against methicillin-sensitive Staphylococcus aureus ATCC 25923 after 24 hrs by spectrophotometric analysis; format: functional; settings: ATCC 25923, 24 h
Staphylococcus aureus [3] = assay: Antibacterial activity against methicillin-resistant Staphylococcus aureus ATCC 43300 after 24 hrs by spectrophotometric analysis; format: functional; settings: ATCC 43300, 24 h
Escherichia coli = assay: Antibacterial activity against Escherichia coli ATCC 25922 after 24 hrs by spectrophotometric analysis; format: functional; settings: ATCC 25922, 24 h

SMILES	IC50 [1] [µM]	MIC (Staphylococcus aureus [2]) [µg/mL]	MIC (Staphylococcus aureus [3]) [µg/mL]	MIC (Escherichia coli) [µg/mL]
CCCCCC[C@H](C)[C@@H]1CC(=O)NCC(=O)N[C@@H](C(C)C)C(=O)N[C@H](CC(C)C)C(=O)N[C@@H](C)C(=O)N[C@@H](CCSC)C(=O)O1	31.3			
CCCCCC[C@H](C)[C@@H]1CC(=O)NCC(=O)N[C@@H](C(C)C)C(=O)N[C@H](CC(C)C)C(=O)N[C@@H](C)C(=O)N[C@@H](CC(C)C)C(=O)O1	25.7			
CCCCCC[C@H](C)[C@@H]1CC(=O)NCC(=O)N[C@@H](C(C)C)C(=O)N[C@H](CC(C)C)C(=O)N[C@@H](C)C(=O)N[C@@H](Cc2ccc(O)cc2)C(=O)O1	12.4			
O=C(N[C@H](CO)[C@H](O)c1ccc([N+](=O)[O-])cc1)C(Cl)Cl [CHLORAMPHENICOL]		2 (≈ 6.19 µM)	4 (≈ 12.4 µM)	2 (≈ 6.19 µM)
